Source: patent publication US20240066136A1, “MODIFIED PROTEINS AND PROTEIN DEGRADERS” (Cullgen (Shanghai), Inc., priority 2020, published 2024)

What was measured:
CDK6 = CDK6 (Homo sapiens (Human), UniProt Q00534); assay: Immunoblot of CDK6 protein in Calu-1 cells; assay type: cell-based; conditions: 1 μM, 16 hours after administration
Experimental: (§1) Additional heterobifunctional compounds were designed and tested for their ability to target and degrade another two target proteins, CDK4 and CDK6. Calu-1 cells that express CDK4/6 proteins were treated with heterobifunctional compounds disclosed herein (D-44 to D-49) at indicated concentrations for 16 hours. Cells were collected, lysed and subject to immunoblotting using an antibody specific to CDK4, CDK6 or phosphorylated Rb proteins. Tubulin was included as the loading control. DMSO treatment was used as the negative control. […] In addition, Calu-1 cells were treated with 1 μM D-48 or D-49 for an indicated period of time. Subsequently, changes in CDK4 and CDK6 protein levels were measured by immunoblotting. […] These experiments highlight the ability of DDB1 binder derived heterobifunctional compounds to degrade multiple different target proteins, including but not limited to epigenetic target proteins, such as CBP and p300, and kinases, such as CDK4 and CDK6.

Human DDB1 = Human DDB1 (Homo sapiens (Human), UniProt Q16531); assay: Surface plasmon resonance (SPR) binding assay to immobilized His-DDB1; conditions: SPR, DDB1 binding moieties with linkers and/or target protein binding moiety; read-out: Binding (Kd)
Chain of Human DDB1 (Q16531 whole entry): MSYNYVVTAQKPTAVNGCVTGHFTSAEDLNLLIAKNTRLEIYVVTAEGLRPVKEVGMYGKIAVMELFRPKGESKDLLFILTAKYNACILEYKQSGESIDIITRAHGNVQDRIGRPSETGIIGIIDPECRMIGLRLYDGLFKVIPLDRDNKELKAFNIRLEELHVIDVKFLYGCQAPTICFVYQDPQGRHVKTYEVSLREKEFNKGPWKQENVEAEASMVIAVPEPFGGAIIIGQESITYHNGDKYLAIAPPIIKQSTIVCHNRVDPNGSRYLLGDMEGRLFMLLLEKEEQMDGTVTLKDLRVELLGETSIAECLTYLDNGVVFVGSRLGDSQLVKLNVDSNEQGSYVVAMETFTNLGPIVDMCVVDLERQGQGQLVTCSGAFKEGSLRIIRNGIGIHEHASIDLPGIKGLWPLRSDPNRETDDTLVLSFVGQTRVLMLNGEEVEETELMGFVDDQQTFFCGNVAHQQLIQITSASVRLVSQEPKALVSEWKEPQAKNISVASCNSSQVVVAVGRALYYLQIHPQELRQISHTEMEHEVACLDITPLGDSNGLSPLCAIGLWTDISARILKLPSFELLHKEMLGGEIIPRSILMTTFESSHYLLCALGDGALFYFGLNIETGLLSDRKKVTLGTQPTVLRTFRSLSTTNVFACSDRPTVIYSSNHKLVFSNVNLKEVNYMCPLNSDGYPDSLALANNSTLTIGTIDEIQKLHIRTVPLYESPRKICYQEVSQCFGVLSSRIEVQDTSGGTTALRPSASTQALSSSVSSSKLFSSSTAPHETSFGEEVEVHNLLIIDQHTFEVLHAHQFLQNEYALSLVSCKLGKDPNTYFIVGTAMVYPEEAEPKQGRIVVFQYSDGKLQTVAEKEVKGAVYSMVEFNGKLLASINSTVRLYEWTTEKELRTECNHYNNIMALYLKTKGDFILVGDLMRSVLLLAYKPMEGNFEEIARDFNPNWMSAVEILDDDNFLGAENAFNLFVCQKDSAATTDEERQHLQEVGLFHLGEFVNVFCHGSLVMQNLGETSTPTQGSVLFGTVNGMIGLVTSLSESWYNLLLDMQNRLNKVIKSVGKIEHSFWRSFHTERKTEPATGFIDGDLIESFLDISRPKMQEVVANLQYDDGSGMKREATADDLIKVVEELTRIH
Method in brief: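 Baculovirus-expressed His-DDB1 (High5 cells) amine-coupled to 11,000–13,000 RU on a CM5 chip; compounds injected in multi-cycle format without regeneration at 25° C in HBS-EP pH 7.4 (120 s association/dissociation). Double-referenced, solvent-corrected data fit to steady-state affinity model for KD.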

CDK4 = CDK4 (Homo sapiens (Human), UniProt P11802); assay: Immunoblot of CDK4 protein in Calu-1 cells; assay type: cell-based; conditions: 1 μM, 16 hours after administration
Chain of CDK4 (P11802 whole entry): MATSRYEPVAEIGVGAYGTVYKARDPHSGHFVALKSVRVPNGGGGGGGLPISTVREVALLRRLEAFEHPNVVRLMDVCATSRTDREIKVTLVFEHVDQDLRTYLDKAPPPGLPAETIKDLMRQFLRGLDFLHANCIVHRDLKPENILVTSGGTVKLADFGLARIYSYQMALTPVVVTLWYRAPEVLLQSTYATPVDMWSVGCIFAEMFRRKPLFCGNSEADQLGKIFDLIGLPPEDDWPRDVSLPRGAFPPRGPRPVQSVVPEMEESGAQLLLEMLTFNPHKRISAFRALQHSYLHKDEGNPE
Experimental: as §1

Chain of CDK6 (Q00534 whole entry): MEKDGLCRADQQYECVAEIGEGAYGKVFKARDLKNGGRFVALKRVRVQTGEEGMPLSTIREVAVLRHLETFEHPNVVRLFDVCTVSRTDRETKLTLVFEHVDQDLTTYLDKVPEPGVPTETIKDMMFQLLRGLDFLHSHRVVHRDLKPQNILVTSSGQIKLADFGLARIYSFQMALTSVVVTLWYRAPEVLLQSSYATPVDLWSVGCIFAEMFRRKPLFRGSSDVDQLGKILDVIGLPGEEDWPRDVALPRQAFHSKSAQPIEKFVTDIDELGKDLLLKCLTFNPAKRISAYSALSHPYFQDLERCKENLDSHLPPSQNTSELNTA

Compound: CC(=O)Nc1cc(NCCOCCOCCOCCOCCOCCOCCNC(=O)CN2CCN(c3ccc(Nc4ncc5c(C)c(C(C)=O)c(=O)n(C6CCCC6)c5n4)nc3)CC2)ccc1C(=O)Nc1nc(C)c([N+](=O)[O-])s1 [D-49, 2-Acetamido-4-((1-(4-(6-((6-acetyl-8-cyclopentyl-5-methyl-7-oxo-7,8-dihydropyrido[2,3-d]pyrimidin-2-yl)amino)pyridin-3-yl)piperazin-1-yl)-2-oxo-6,9,12,15,18,21-hexaoxa-3-azatricosan-23-yl)amino)-N-(4-methyl-5-nitrothiazol-2-yl)benzamide]
- degradation of CDK6 (CDK6): Significant degradation
- Kd (Human DDB1): < 20 µM
- degradation of CDK4 (CDK4): Significant degradation
